Measurements: patent publication US10316017B2, “COT modulators and methods of use thereof” (Gilead Sciences, Inc., priority 2015, dated 2019)

What was measured:
[1] = system: TNFα production in LPS-stimulated human monocytes; test: Cot Monocyte TNFα Cell Based Assay; conditions: Homo sapiens, Monocyte, TNFα in LPS-stimulated human monocytes; read-out: EC50 TNF
Method in brief: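 Human monocytes (5,000 cells/well) pretreated with compound for 1 hour at 37° C (0.5% DMSO), then stimulated with 50 pg/ml LPS for 4 hours. Total TNFα measured by TR-FRET after overnight antibody incubation at room temp, expressed as percent of control between unstimulated and stimulated cells.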

[2] = target: T1, human Cot catalytic domain (30-397 amino acids) (Homo sapiens, UniProt P41279); test: High Throughput Cot Biochemical Assay (KinEASE TR-FRET); conditions: Cot biochemical HTRF (KinEASE TR-FRET) assay; read-out: IC50 HTRF
T1 construct: Purified recombinant human Cot catalytic domain (30-397 amino acids) was purchased from Cama Biosciences; purchased Cama Biosciences (so in the source)
T1 sequence (P41279 30-397): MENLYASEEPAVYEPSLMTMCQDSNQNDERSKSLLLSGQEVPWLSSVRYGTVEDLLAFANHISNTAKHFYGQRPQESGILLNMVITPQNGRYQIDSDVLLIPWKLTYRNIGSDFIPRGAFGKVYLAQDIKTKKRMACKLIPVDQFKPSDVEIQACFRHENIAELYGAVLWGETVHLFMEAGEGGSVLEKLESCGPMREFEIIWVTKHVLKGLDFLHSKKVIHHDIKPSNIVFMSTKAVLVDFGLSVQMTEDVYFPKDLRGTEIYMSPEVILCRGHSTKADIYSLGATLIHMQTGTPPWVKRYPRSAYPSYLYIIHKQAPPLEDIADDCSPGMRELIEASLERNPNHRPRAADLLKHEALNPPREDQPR
Method in brief: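 Recombinant human Cot catalytic domain (aa 30-397), 5 nM, with 1 μM STK3 peptide and 400 μM ATP in MOPS pH 7.0 buffer with MgOAc, DTT, BSA, NP-40, glycerol, 0.1% DMSO. Phosphorylated XL665-peptide detected by Eu-[…] antibody TR-FRET.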

| SMILES | EC50 [1] [nM] | IC50 [2] [nM] |
| --- | --- | --- |
| CCN1CCC(n2cc([C@@H](Nc3ccc4ncc(C#N)c(Nc5ccc(F)c(Cl)c5)c4c3)c3ccccc3)nn2)CC1 [Example 779, (S)-4-((3-chloro-4-fluorophenyl)amino)-6-(((1-(1 ethylpiperidin-4-yl)-1H-1,2,3-triazol-4-yl)(phenyl)methyl)amino)quinoline-3-carbonitrile] | 196 | 4 |
| CC(C)(C)N1CCC(n2cc([C@@H](Nc3cc(Cl)c4ncc(C#N)c(Nc5cncc(Cl)c5)c4c3)c3ccccc3)nn2)CC1 [Example 780, (S)-6-(((1-(1-(tert-butyl)piperidin-4-yl)-1H-1,2,3-triazol-4-yl)(phenyl)methyl)amino)-8-chloro-4-((5-chloropyridin-3-yl)amino)quinoline-3-carbonitrile] | 865 | 20 |
| CC(C)(C)N1CCC(n2cc([C@@H](Nc3cc(Cl)c4ncc(C#N)c(Nc5ccc(Cl)c(Cl)c5F)c4c3)c3ccccc3)nn2)CC1 [Example 781, (S)-6-(((1-(1-(tert-butyl)piperidin-4-yl)-1H-1,2,3-triazol-4-yl)(phenyl)methyl)amino)-8-chloro-4-((3,4-dichloro-2-fluorophenyl)amino)quinoline-3-carbonitrile] | 597 | 11 |
| N#Cc1cnc2c(Cl)cc(NC(c3ccc(F)cc3)c3csnn3)cc2c1Nc1ccc(F)c(Cl)c1 (stereo not shown) [Example 784, 8-chloro-4-((3-chloro-4-fluorophenyl)amino)-6-(((4-fluorophenyl)(1,2,3-thiadiazol-4-yl)methyl)amino)quinoline-3-carbonitrile] | 1990 | 249 |
| CC(C)(C)N1CCC(n2cc([C@@H](Nc3cc(Cl)c4ncc(C#N)c(Nc5ccc(OCc6ccccn6)c(Cl)c5)c4c3)c3ccccc3)nn2)CC1 [Example 786, (S)-6-(((1-(1-(tert-butyl)piperidin-4-yl)-1H-1,2,3-triazol-4-yl)(phenyl)methyl)amino)-8-chloro-4-((3-chloro-4-(pyridin-2-ylmethoxy)phenyl)amino)quinoline-3-carbonitrile] | 6630 | 173 |
| CC(C)(C)N1CCC(n2cc([C@@H](Nc3cc(Cl)c4ncc(C#N)c(Nc5ccc(F)c(F)c5)c4c3)c3ccccc3)nn2)CC1 [Example 787, (S)-6-(((1-(1-(tert-butyl)piperidin-4-yl)-1H-1,2,3-triazol-4-yl)(phenyl)methyl)amino)-8-chloro-4-((3,4-difluorophenyl)amino)quinoline-3-carbonitrile] | 362 | 11 |
| CC1(C)CC(n2cc([C@@H](Nc3cc(Cl)c4ncc(C#N)c(Nc5ccc(F)c(Cl)c5)c4c3)c3ccccc3)nn2)CCN1 (stereo partly drawn) [Example 790, 8-chloro-4-((3-chloro-4-fluorophenyl)amino)-6-(((1S)-(1-(2,2-dimethylpiperidin-4-yl)-1H-1,2,3-triazo1-4-yl)(phenyl)methyl)amino) quinoline-3-carbonitrile] | 305 | 4 |
| CCN1CCC(n2cc([C@@H](Nc3cc(F)c4ncc(C#N)c(Nc5ccc(F)c(Cl)c5)c4c3)c3ccccc3)nn2)CC1 [Example 791, (S)-4-((3-chloro-4-fluorophenyl)amino)-6-(((1-(1-ethylpiperidin-4-yl)-1H-1,2,3-triazol-4-yl)(phenyl)methyl)amino)-8-fluoroquinoline-3-carbonitrile] | 50 | 3 |
| CCN1CCC(n2cc([C@H](c3ccccc3)N(CC)c3cc(Cl)c4ncc(C#N)c(Nc5ccc(F)c(Cl)c5)c4c3)nn2)CC1 [Example 792, (S)-8-chloro-4-((3-chloro-4-fluorophenyl)amino)-6-(ethyl((1-(1-ethylpiperidin-4-yl)-1H-1,2,3-triazol-4-yl)(phenyl)methyl)amino) quinoline-3-carbonitrile] | 91 | 5 |
| CN(C)CCn1cc([C@@H](Nc2cc(Cl)c3ncc(C#N)c(Nc4ccc(F)c(Cl)c4)c3c2)c2ccccc2)nn1 [Example 793, (S)-8-chloro-4-((3-chloro-4-fluorophenyl)amino)-6-(((1-(2-(dimethylamino)ethyl)-1H-1,2,3-triazol-4-yl)(phenyl)methyl)amino) quinoline-3-carbonitrile] | 209 | 7 |
| N#Cc1cnc2c(F)cc(N[C@@H](c3ccccc3)c3cn(C4CCNCC4)nn3)cc2c1Nc1ccc(F)c(Cl)c1 [Example 794, (S)-4-((3-chloro-4-fluorophenyl)amino)-8-fluoro-6-((phenyl(1-(piperidin-4-yl)-1H-1,2,3-triazol-4-yl)methyl)amino)quinoline-3-carbonitrile] | 441 | 4 |
| COCCn1cc([C@@H](Nc2cc(Cl)c3ncc(C#N)c(Nc4ccc(F)c(Cl)c4)c3c2)c2ccccc2)nn1 [Example 795, (S)-8-chloro-4-((3-chloro-4-fluorophenyl)amino)-6-(((1-(2-methoxyethyl)-1H-1,2,3-triazol-4-yl)(phenyl)methyl)amino)quinoline-3-carbonitrile] | 314 | 13 |

Continued, values first:

| EC50 [1] [nM] | IC50 [2] [nM] | SMILES |
| --- | --- | --- |
| 200 | 2 | N#Cc1cnc2c(Cl)cc(N[C@@H](c3ccccc3)c3cn(CCN)nn3)cc2c1Nc1ccc(F)c(Cl)c1 [Example 796, (S)-6-(((1-(2-aminoethyl)-1H-1,2,3-triazol-4-yl)(phenyl)methyl)amino)-8-chloro-4-((3-chloro-4-fluorophenyl)amino)quinoline-3-carbonitrile] |
| 107 | 3 | CN(C)CCCn1cc([C@@H](Nc2cc(Cl)c3ncc(C#N)c(Nc4ccc(F)c(Cl)c4)c3c2)c2ccccc2)nn1 [Example 797, (S)-8-chloro-4-((3-chloro-4-fluorophenyl)amino)-6-(((1-(3-(dimethylamino)propyl)-1H-1,2,3-triazol-4-yl)(phenyl)methyl)amino) quinoline-3-carbonitrile] |
| 963 | 78 | N#Cc1cnc2c(Cl)cc(N[C@@H](c3ccc(Cl)cc3)c3cn(C4CCN(C5COC5)CC4)nn3)cc2c1Nc1ccc(F)c(Cl)c1 [Example 802, (S)-8-chloro-4-((3-chloro-4-fluorophenyl)amino)-6-(((4-chlorophenyl)(1-(1-(oxetan-3-yl)piperidin-4-yl)-1H-1,2,3-triazol-4-yl)methyl)amino)quinoline-3-carbonitrile] |
| 206 | 7 | CC(C)(C)N1CCC(n2cc([C@@H](Nc3cc(Cl)c4ncc(C#N)c(Nc5ccc(F)c(Cl)c5)c4c3)c3ccc(Cl)cc3)nn2)CC1 [Example 803, (S)-6-(((1-(1-(tert-butyl)piperidin-4-yl)-1H-1,2,3-triazol-4-yl)(4-chlorophenyl)methyl)amino)-8-chloro-4-((3-chloro-4-fluorophenyl)amino)quinoline-3-carbonitrile] |
| > 1000 | 588 | Cc1nonc1C(Nc1cc(Cl)c2ncc(C#N)c(Nc3ccc(F)c(Cl)c3)c2c1)c1ccc(F)cc1 (stereo not shown) [Example 805, 8-chloro-4-((3-chloro-4-fluorophenyl)amino)-6-(((4-fluorophenyl)(4-methyl-1,2,5-oxadiazol-3-yl)methyl)amino)quinoline-3-carbonitrile] |
| > 50000 | 850 | N#Cc1cnc2c(Cl)cc(NC(c3ccc(F)cc3)c3cscn3)cc2c1Nc1ccc(F)c(Cl)c1 (stereo not shown) [Example 806, 8-chloro-4-((3-chloro-4-fluorophenyl)amino)-6-(((4-fluorophenyl)(thiazol-4-yl)methyl)amino)quinoline-3-carbonitrile] |
| 434 | 26 | CC1(Cn2cc([C@@H](Nc3cc(Cl)c4ncc(C#N)c(Nc5ccc(F)c(Cl)c5)c4c3)c3ccc(F)cc3)nn2)COC1 [Example 808, (S)-8-chloro-4-((3-chloro-4-fluorophenyl)amino)-6-(((4-fluorophenyl)(1-((3-methyloxetan-3-yl)methyl)-1H-1,2,3-triazol-4-yl)methyl)amino)quinoline-3-carbonitrile] |
| 116 | 6 | CCN1CCC(n2cc([C@@H](Nc3cc(F)c4ncc(C#N)c(Nc5ccc(F)c(Cl)c5)c4c3)c3ccc(Cl)cc3)nn2)CC1 [Example 813, (S)-4-((3-chloro-4-fluorophenyl)amino)-6-(((4-chlorophenyl)(1-(1-ethylpiperidin-4-yl)-1H-1,2,3-triazol-4-yl)methyl)amino)-8-fluoroquinoline-3-carbonitrile] |
| 704 | 10 | N#Cc1cnc2c(F)cc(N[C@@H](c3ccc(Cl)cc3)c3cn(C4CCNCC4)nn3)cc2c1Nc1ccc(F)c(Cl)c1 [Example 814, (S)-4-((3-chloro-4-fluorophenyl)amino)-6-(((4-chlorophenyl)(1-(piperidin-4-yl)-1H-1,2,3-triazol-4-yl)methyl)amino)-8-fluoroquinoline-3-carbonitrile] |
| 426 | 22 | N#Cc1cnc2c(Cl)cc(N[C@@H](c3ccc(F)cc3)c3c[nH]nn3)cc2c1Nc1ccc(F)c(Cl)c1 [Example 819, (S)-8-chloro-4-((3-chloro-4-fluorophenyl)amino)-6-(((4-fluorophenyl)(1H-1,2,3-triazol-4-yl)methyl)amino)quinoline-3-carbonitrile] |
| 450 | 58 | CN(C)C(=O)CN1CCC(n2cc([C@@H](Nc3cc(Cl)c4ncc(C#N)c(Nc5ccc(F)c(Cl)c5)c4c3)c3ccc(F)cc3)nn2)CC1 [Example 824, (S)-2-(4-(4-(((8-chloro-4-((3-chloro-4-fluorophenyl)amino)-3-cyanoquinolin-6-yl)amino)(4-fluorophenyl)methyl)-1H-1,2,3-triazol-1-yl)piperidin-1-yl)-N,N-dimethylacetamide] |
